Earlier results, collected in US8951969B2, “Compositions and methods for treating centrally mediated nausea and vomiting” (Helsinn Healthcare S.A., priority 2009, dated 2015).

Columns and labels:
[1] = system: nausea following moderately or highly emetogenic chemotherapy; details: humans, compared to a 5-HT3 antagonist alone; cited from earlier work
[2] = system: nausea, moderately emetogenic chemotherapy; details: cited from earlier work

| Structure (SMILES) | effect on incidence or severity of nausea [1] | effect against nausea ([2]; administered in response to moderately emetogenic chemotherapy) | side effect ([2]; moderately emetogenic chemotherapy) |
| --- | --- | --- | --- |
| C[C@@H](O[C@H]1OCCN(Cc2n[nH]c(=O)[nH]2)[C@H]1c1ccc(F)cc1)c1cc(C(F)(F)F)cc(C(F)(F)F)c1 [aprepitant] | unable to induce a significant reduction in the incidence or severity of nausea | – | – |
| CC(=O)N1CCN([C@H]2CCN(C(=O)N(C)[C@H](C)c3cc(C(F)(F)F)cc(C(F)(F)F)c3)[C@@H](c3ccc(F)cc3C)C2)CC1 [casopitant, (2R,4S)-4-(4-acetytlpiperazin-1-yl)-N-{(1R)-1-[3,5-bis(trifluoromethyl)phenyl]ethyl}-2-(4-fluoro-2-methylphenyl)-N-methylpiperidine-1-carboxamide] | – | no statistically significant effect against nausea | induced nausea as a side effect |
